What was measured:
[1] = molecular target: Nudix hydrolase 5 (NUDT5) (Homo sapiens, UniProt Q9UKK9); assay: PROTAC degradation of endogenous NUDT5 in cells, western blot, […] h; type: cell-based
[2] = molecular target: phosphoribosyl pyrophosphate amidotransferase (PPAT) (Homo sapiens, UniProt Q06203); assay: GDH-coupled NADH fluorescence assay of purified PPAT; type: biochemical
Sequence of phosphoribosyl pyrophosphate amidotransferase (PPAT) (Q06203 12-517): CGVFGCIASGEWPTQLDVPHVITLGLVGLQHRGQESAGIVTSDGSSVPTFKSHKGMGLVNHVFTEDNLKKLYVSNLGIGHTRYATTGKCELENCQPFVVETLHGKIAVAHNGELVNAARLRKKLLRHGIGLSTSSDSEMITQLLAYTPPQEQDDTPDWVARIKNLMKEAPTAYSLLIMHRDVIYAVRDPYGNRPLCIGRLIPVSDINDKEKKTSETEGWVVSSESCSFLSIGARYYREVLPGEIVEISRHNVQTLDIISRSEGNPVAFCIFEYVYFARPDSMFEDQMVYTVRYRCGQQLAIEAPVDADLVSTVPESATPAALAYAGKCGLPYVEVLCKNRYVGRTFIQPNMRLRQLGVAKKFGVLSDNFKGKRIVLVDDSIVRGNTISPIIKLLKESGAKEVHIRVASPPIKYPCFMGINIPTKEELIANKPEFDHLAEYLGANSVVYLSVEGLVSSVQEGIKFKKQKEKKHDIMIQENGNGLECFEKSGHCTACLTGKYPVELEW

PROTAC degradation of endogenous NUDT5 in cells, western blot, 20 h [1] [nM]	Compound	GDH-coupled NADH fluorescence assay of purified PPAT [2]
100	Cn1c(=O)c2c(nc(N3CCN(C(=O)N4CCC(CN5CCN(c6ccc7c(c6)C(=O)N(C6CCC(=O)NC6=O)C7=O)CC5)CC4)CC3)n2Cc2nnc(-c3ccc(Cl)c(Cl)c3)o2)n(C)c1=O (centres unmarked) [dNUDT5]	
	NC(=O)CC[C@H](N)C(=O)O [glutamine]	the first half reaction of PPAT reaction was assayed by monitoring the production of glutamate from glutamine
